Reference: publication PMC5872703, “The Postprandial Anti-Hyperglycemic Effect of Pyridoxine and Its Derivatives Using In Vitro and In Vivo Animal Models” (Nutrients, 2018)
Where “and” joins values, the source holds several entries; their conditions need not be identical. Equal values may be shown once. Marks after values point to notes of the source that are not given here.

Key:
[1] = target: T1, porcine pancreatic α-amylase (Sus scrofa, UniProt P00690); test: Porcine pancreatic α-amylase inhibition assay; format: biochemical; conditions: for IC50: mean ± S.D.
T1 sequence (P00690 16-511): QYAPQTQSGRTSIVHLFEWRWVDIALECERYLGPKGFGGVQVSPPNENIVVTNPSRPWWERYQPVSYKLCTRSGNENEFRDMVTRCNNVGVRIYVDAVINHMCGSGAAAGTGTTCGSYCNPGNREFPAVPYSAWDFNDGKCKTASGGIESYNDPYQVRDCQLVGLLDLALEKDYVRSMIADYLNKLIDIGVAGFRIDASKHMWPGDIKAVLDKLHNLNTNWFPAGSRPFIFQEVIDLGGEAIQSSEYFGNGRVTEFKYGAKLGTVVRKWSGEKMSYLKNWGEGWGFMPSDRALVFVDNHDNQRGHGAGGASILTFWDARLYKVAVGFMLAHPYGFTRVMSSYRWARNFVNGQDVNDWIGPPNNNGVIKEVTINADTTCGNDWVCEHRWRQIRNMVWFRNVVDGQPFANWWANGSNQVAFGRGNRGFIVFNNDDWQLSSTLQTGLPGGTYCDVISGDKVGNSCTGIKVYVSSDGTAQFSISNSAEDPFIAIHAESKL
Experimental: The porcine pancreatic α-amlyase inhibition assay was administered as per the method of Kwon et al. Sample solution (200 μL) and 0.02 M sodium phosphate buffer (pH 6.9 with 0.006 M sodium chloride, 500 μL) containing α-amylase solution (0.5 mg/mL, 5.0 MU/mL) were incubated at 25 °C for 10 min. After preincubation, 500 μL of a 1% starch solution in 0.02 M sodium phosphate buffer was added. The reaction mixture was then incubated at 25 °C for 10 min. The reaction was stopped with 1.0 mL of dinitrosalicylic acid (DNS). The reaction mixture was then incubated in a boiling water bath for 5 min and cooled to room temperature. The reaction mixture at 540 nm with ELISA microplate reader (SUNRISE; Tecan Trading AG, Saltzburg, Austria).

Rat Intestinal SUCRASE = target: T2, Rat Intestinal SUCRASE (Rattus norvegicus, UniProt P23739); test: Sucrase inhibition assay (rat intestinal acetone powder); format: biochemical; conditions: mean ± S.D.
T2 construct: The crude enzyme solution prepared from rat intestinal acetone powder; tissue Sigma-Aldrich Co; host or cells: rat intestine (acetone powder)
T2 sequence (P23739 whole entry): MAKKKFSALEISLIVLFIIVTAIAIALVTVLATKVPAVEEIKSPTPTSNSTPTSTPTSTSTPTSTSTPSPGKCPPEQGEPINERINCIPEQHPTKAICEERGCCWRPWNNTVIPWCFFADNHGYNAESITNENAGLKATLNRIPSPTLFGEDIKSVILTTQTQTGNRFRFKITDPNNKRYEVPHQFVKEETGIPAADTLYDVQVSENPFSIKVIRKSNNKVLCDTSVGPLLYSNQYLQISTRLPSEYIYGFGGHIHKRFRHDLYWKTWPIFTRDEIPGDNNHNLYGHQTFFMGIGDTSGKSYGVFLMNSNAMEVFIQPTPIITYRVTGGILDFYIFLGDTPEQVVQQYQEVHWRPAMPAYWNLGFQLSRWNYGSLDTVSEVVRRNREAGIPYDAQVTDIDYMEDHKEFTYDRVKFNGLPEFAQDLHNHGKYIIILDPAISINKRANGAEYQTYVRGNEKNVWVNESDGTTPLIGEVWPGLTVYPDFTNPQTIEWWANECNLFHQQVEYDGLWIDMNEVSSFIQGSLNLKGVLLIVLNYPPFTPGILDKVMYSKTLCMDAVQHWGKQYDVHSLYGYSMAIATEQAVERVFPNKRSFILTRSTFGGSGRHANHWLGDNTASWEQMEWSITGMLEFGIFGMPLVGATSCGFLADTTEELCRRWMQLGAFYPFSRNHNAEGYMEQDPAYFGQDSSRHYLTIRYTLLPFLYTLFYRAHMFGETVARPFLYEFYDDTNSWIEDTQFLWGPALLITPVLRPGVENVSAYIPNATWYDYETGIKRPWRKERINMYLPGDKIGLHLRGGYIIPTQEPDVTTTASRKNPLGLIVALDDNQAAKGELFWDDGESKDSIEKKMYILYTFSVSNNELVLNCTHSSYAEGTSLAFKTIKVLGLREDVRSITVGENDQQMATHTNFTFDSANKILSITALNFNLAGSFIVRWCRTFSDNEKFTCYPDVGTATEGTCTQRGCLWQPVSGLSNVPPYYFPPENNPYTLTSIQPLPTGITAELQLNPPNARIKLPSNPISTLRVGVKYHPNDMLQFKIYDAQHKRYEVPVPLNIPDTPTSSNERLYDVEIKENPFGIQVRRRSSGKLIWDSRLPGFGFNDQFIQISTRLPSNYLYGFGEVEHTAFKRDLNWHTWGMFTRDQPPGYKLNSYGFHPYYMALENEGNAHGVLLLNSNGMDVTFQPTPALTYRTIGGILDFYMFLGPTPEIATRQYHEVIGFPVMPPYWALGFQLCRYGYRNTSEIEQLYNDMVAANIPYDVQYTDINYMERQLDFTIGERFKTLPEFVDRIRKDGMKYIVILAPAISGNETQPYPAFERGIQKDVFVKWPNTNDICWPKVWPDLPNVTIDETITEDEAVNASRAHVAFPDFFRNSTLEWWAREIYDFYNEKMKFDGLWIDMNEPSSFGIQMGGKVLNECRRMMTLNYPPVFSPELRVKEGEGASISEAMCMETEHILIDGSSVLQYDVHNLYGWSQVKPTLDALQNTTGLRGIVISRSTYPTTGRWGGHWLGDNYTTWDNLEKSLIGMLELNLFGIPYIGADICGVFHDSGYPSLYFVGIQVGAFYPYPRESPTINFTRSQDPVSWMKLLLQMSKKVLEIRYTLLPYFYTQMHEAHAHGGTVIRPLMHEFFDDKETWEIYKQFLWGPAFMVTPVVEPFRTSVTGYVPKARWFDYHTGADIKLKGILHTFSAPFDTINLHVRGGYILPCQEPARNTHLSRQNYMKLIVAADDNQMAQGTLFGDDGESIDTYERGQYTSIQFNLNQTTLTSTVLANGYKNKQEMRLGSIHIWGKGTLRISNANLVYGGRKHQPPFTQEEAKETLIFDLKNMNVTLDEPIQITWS
Experimental: (§1) The crude enzyme solution prepared from rat intestinal acetone powder Sigma-Aldrich Co. (St. Louise, MO, USA) was used as the small intestinal maltase, sucrose, and glucoamylase, showing specific activities of 0.70, 0.34, and 0.45 units/mL, respectively. Rat intestinal acetone powder (1.0 g) was suspended in 3 mL of 0.1 M sodium phosphate buffer, and the suspension was sonicated 12 times for 30 s at 4 °C. After centrifugation (10,000 × g, 30 min, 4 °C), the resulting supernatant was used for the assay. Maltase, sucrose, and glucoamylase inhibitory activity were assay by modifying a method developed by Dahlqvist. The inhibitory activity was determined by incubating a solution of an enzyme (50 μL), 0.1 M phosphate buffer (pH 7.0, 100 μL) containing 0.4 mg/mL sucrose or maltose or 1% soluble starch, and a solution (50 μL) with various concentrations of sample solution (between 0.05 and 1.0 mM) at 37 °C for 30 min. The reaction mixture was heated in a boiling water bath to stop the reaction for 10 min, and the amount of liberated glucose was then measured by the glucose oxidase. The inhibitory activity was calculated from the formula as follows. Inhibition (%) = (C − T)/C × 100, where C is the enzyme activity without inhibitor, and T is the enzyme activity with inhibitor.

[2] = target: Rat Intestinal Glucoamylase (Rattus norvegicus, UniProt D3ZTX4); test: Glucoamylase inhibition assay (rat intestinal acetone powder); format: biochemical; conditions: read-out: glucoamylase inhibition
Experimental: as §1

[3] = test system: rat intestinal α-glucosidase; test: Rat intestinal α-glucosidase inhibition assay (pNPG); format: biochemical; conditions: for IC50 Rat intestinal α-Glucosidase: mean ± S.D.
Experimental: The rat intestinal α-glucosidase assay was administered as per the method of Kwon et al. with slight modification. A total of 1 g of rat-intestinal acetone powder was suspended in 3 mL of 0.1 M sodium phosphate buffer (pH 6.9), and the suspension was sonicated 12 times for 30 s at 4 °C. After centrifugation (10,000× g, 30 min, 4 °C), the resulting supernatant was used for the assay. Sample solution (50 μL) and 0.1 phosphate buffer (pH 6.9, 100 μL) containing α-glucosidase (Sigma-Aldrich, St. Luis, MO, USA) solution (1.0 U/mL) was incubated at 37 °C for 10 min. After pre-incubation, 5 mM p-nitrophenyl-α-D-glucopyranoside solution (50 μL) in 0.1 M phosphate buffer (pH 6.9) was added to each well at timed intervals. The reaction mixtures were incubated at 37 °C for 30 min. Before and after incubation, absorbance was read at 405 nm and compared to a control, which had 50 μL of buffer solution in place of the extract by micro-plate reader (SUNRISE; Tecan Trading AG, Salzburg, Austria). The α-glucosidase inhibitory activity was expressed as inhibition % and was calculated as follows: Inhibition(%)=(ΔA 405 (Control)−ΔA 405(Extract)/ΔA 405 (Control))×100

Sprague-Dawley (SD) rats [4] = test: Sucrose loading test, postprandial blood glucose; format: in vivo, rat; conditions: for blood glucose level / change (increase) of blood glucose level / BGL AUCt: SD rats; for blood glucose level / change (increase) of blood glucose level: sucrose 2.0 g/kg oral, 30 min after administration; for BGL AUCt: sucrose 2.0 g/kg
Experimental: (§2) All animal procedures were approved by Institutional Animal Care and Use Committee (IACUC) of the Hannam University (Approval number: HNU2017-003). Four-week-old male SD rats were purchased from Raon Bio Co. (Gyeonggi-do, Korea) and fed a solid diet (Raon Bio Co., Gyeonggi-do, Korea) for one week. The rats were housed in a ventilated room at 23 ± 2 °C with 50 ± 5% relative humidity, and under an alternating 12 h light/dark cycle. […] The blood samples were then taken from the tail after administration and blood glucose levels were measured at 0, 0.5, 1, 2, and 3 h.

Sprague-Dawley (SD) rats [5] = test: Starch loading test, postprandial blood glucose; format: in vivo, rat; conditions: for blood glucose level / increase in blood glucose level / BGL AUCt: SD rats; for blood glucose level / increase in blood glucose level: starch 2.0 g/kg oral, 30 min after administration; for BGL AUCt: starch 2.0 g/kg
Experimental: as §2

Rat Intestinal Maltase = test: Maltase inhibition assay (rat intestinal acetone powder); format: biochemical; conditions: for IC50 Rat Intestinal Maltase: mean ± S.D.
Experimental: as §1

[6] = two highest tested doses 5 and 7 mg/mL
[7] = sucrose loading, 30 min, vs pyridoxine-treated group
[8] = starch loading, 30 min, vs pyridoxine-treated group
[9] = starch loading, 30 min, vs starch (control) group

Compound | IC50 [1] [mM] | pancreatic α-amylase inhibitory effect [1, 6] | IC50 (Rat Intestinal SUCRASE) [mM] | IC50 Rat intestinal α-Glucosidase [3] | blood glucose level (Sprague-Dawley (SD) rats [4]) [mg/dL] | change (increase) of blood glucose level (Sprague-Dawley (SD) rats [4]) [mg/dL] | BGL AUCt (Sprague-Dawley (SD) rats [4]; sample 0.1 g/kg oral) | blood glucose level (Sprague-Dawley (SD) rats [5]) [mg/dL] | increase in blood glucose level (Sprague-Dawley (SD) rats [5]) [mg/dL] | BGL AUCt (Sprague-Dawley (SD) rats [5]; sample 0.1 g/kg oral) | IC50 Rat Intestinal Maltase (Rat Intestinal Maltase) | further results
Cc1ncc(CO)c(C=O)c1O [Pyridoxal] | 77.3 ± 7.3 | showed α-amylase inhibitory effects | 1.91 ± 0.179 | 4.14 mg/mL and 4.15 ± 0.17 ^b mg/mL | 164.74 ± 12.06 | 64.88 ± 12.06 | 272.99 ± 5.96 ^b h∙mg/dL | 175.36 ± 10.84 | 79.78 ± 10.84 | 268.27 ± 8.80 ^b h∙mg/dL | 0.38 mg/mL and 0.37 ± 0.13 ^b mg/mL | inhibition at 200 µg/mL [2]: 42.8%; inhibition at 500 µg/mL [2]: 66.1%; inhibition at 1000 µg/mL [2]: 78.6%; α-glucosidase inhibition ([3]; highest tested dose 7 mg/mL): 79.83%; blood glucose reduction compared to control (Sprague-Dawley (SD) rats [4]; at 30 min, loading test not given): around 18%; decrease of maximum blood glucose level (Cmax) compared to control (Sprague-Dawley (SD) rats [4]; sucrose loading test, p < 0.05): about 18%; blood glucose level, less than that of pyridoxine-treated group (Sprague-Dawley (SD) rats [4]; [7]): 27.76 mg/dL; change of blood glucose level, lower than pyridoxine-treated group (Sprague-Dawley (SD) rats [4]; [7]): 27.98 mg/dL; blood glucose level, less than that of sucrose-treated group (Sprague-Dawley (SD) rats [4]; sucrose loading, 30 min, vs sucrose (control) group): 35.89 mg/dL; decrease of maximum blood glucose level (Cmax) compared to control (Sprague-Dawley (SD) rats [5]; starch loading test, p < 0.05): ~19%; increase in blood glucose level, less than that of pyridoxine-treated group (Sprague-Dawley (SD) rats [5]; [8]): 27.91 mg/dL; suppression of blood glucose level compared to pyridoxine-treated group (Sprague-Dawley (SD) rats [5]; [8]): 26.41 mg/dL; increase in blood glucose level, less than that of starch group (Sprague-Dawley (SD) rats [5]; [9]): 44.45 mg/dL; suppression of blood glucose level compared to starch group (Sprague-Dawley (SD) rats [5]; [9]): 41.56 mg/dL; maltase inhibitory activity (Rat Intestinal Maltase; 0.5 mg/mL): 48.39%; maltase inhibitory activity (Rat Intestinal Maltase; 1 mg/mL): 70.10%; maltase inhibitory activity (Rat Intestinal Maltase; 2 mg/mL): 83.29%
Cc1ncc(CO)c(CO)c1O [Pyridoxine] | 137 | – | 1.89 | 5.02 ± 0.05 ^a mg/mL | 192.50 ± 10.10 | 92.86 ± 10.10 | 290.64 ± 15.55 ^c h∙mg/dL | 201.78 ± 18.99 | 107.69 ± 18.99 | 274.28 ± 15.62 ^b h∙mg/dL | 0.87 ± 0.08 ^a mg/mL | pancreatic α-amylase inhibitory effect ([1]; highest tested dose 7 mg/mL): no inhibitory effects
C[C@H]1O[C@H](O[C@H]2[C@H](O)[C@@H](O)[C@@H](O[C@H]3[C@H](O)[C@@H](O)C(O)O[C@@H]3CO)O[C@@H]2CO)[C@H](O)[C@@H](O)[C@@H]1N[C@H]1C=C(CO)[C@@H](O)[C@H](O)[C@H]1O (stereo partly drawn) [Acarbose, reference compound] | – | – | – | – | – | – | – | – | – | – | – | BGL AUCt (Sprague-Dawley (SD) rats [4]; Acarbose 0.005 g/kg oral): 237.94 ± 8.82 ^a h∙mg/dL; BGL AUCt (Sprague-Dawley (SD) rats [5]; Acarbose 0.005 g/kg oral): 228.88 ± 13.09 ^a h∙mg/dL
Cc1ncc(CO)c(CN)c1O [Pyridoxamine] | 88.8 | showed α-amylase inhibitory effects | 2.08 | 4.85 ± 0.06 ^a mg/mL | – | – | 269.14 ± 13.40 ^b h∙mg/dL | – | – | 275.10 ± 7.31 ^b h∙mg/dL | 1.08 ± 0.10 ^a mg/mL | –
